In ChEMBL document CHEMBL4390652, “Design, biological evaluation and X-ray crystallography of nanomolar multifunctional ligands targeting simultaneously acetylcholinesterase and glycogen synthase kinase-3” (Eur J Med Chem, 2019):

Key:
[1] = molecular target: Serine/threonine-protein kinase MRCK alpha (Homo sapiens) (UniProt Q5VT25); experiment: Binding affinity to wild-type human partial length MRCKA (L57 to V418 residues) expressed in bacterial expression system assessed as residual binding level at 10 uM by Kinomescan method relative to control
[2] = molecular target: Serine/threonine-protein kinase 4 (Homo sapiens) (UniProt Q13043); experiment: Binding affinity to wild-type human full length MST1 (M1 to F487 residues) expressed in bacterial expression system assessed as residual binding level at 10 uM by Kinomescan method relative to control
[3] = tested on: Tyrosine-protein kinase ABL1 (Homo sapiens), P00519 [F317I]; experiment: Binding affinity to human non-phosphorylated ABL1 F317I mutant (S229 to K512 residues) expressed in mammalian expression system assessed as residual binding level at 10 uM by Kinomescan method relative to control
[4] = molecular target: Serine/threonine-protein kinase D2 (Homo sapiens) (UniProt Q9BZL6); experiment: Binding affinity to wild-type human partial length PRKD2 (A519 to E838 residues) expressed in bacterial expression system assessed as residual binding level at 10 uM by Kinomescan method relative to control
Sequence of Serine/threonine-protein kinase D2 (Homo sapiens) (Q9BZL6 whole entry, the tested form may be a part): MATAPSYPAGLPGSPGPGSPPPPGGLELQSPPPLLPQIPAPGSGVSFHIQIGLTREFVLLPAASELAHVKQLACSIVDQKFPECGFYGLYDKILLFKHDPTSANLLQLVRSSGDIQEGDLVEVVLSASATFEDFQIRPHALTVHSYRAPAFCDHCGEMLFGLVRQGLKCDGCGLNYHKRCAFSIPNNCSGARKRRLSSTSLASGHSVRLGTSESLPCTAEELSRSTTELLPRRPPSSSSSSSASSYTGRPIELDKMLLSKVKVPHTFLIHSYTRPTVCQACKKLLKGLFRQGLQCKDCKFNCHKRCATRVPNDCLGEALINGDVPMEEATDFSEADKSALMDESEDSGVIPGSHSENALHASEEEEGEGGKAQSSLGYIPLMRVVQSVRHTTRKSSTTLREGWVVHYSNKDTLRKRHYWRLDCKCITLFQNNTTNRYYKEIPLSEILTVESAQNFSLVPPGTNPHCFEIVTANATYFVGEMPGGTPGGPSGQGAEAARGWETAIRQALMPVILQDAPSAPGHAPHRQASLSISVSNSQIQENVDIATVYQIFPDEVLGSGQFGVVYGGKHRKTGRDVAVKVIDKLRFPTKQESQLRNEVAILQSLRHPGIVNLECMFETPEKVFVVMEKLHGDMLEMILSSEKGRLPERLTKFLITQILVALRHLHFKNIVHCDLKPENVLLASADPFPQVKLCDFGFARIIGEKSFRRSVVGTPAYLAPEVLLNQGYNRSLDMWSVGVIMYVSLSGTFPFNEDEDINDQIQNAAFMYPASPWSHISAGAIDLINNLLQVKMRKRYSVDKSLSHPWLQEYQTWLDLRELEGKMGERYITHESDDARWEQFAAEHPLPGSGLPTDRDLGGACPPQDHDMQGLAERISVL

[5] = molecular target: Phosphatidylinositol 3-kinase C2 domain-containing subunit gamma (Homo sapiens) (UniProt O75747); experiment: Binding affinity to wild-type human partial length PIK3C2G (M1 to I1446 residues) expressed in mammalian expression system assessed as residual binding level at 10 uM by Kinomescan method relative to control
Sequence of Phosphatidylinositol 3-kinase C2 domain-containing subunit gamma (Homo sapiens) (O75747 whole entry, the tested form may be a part): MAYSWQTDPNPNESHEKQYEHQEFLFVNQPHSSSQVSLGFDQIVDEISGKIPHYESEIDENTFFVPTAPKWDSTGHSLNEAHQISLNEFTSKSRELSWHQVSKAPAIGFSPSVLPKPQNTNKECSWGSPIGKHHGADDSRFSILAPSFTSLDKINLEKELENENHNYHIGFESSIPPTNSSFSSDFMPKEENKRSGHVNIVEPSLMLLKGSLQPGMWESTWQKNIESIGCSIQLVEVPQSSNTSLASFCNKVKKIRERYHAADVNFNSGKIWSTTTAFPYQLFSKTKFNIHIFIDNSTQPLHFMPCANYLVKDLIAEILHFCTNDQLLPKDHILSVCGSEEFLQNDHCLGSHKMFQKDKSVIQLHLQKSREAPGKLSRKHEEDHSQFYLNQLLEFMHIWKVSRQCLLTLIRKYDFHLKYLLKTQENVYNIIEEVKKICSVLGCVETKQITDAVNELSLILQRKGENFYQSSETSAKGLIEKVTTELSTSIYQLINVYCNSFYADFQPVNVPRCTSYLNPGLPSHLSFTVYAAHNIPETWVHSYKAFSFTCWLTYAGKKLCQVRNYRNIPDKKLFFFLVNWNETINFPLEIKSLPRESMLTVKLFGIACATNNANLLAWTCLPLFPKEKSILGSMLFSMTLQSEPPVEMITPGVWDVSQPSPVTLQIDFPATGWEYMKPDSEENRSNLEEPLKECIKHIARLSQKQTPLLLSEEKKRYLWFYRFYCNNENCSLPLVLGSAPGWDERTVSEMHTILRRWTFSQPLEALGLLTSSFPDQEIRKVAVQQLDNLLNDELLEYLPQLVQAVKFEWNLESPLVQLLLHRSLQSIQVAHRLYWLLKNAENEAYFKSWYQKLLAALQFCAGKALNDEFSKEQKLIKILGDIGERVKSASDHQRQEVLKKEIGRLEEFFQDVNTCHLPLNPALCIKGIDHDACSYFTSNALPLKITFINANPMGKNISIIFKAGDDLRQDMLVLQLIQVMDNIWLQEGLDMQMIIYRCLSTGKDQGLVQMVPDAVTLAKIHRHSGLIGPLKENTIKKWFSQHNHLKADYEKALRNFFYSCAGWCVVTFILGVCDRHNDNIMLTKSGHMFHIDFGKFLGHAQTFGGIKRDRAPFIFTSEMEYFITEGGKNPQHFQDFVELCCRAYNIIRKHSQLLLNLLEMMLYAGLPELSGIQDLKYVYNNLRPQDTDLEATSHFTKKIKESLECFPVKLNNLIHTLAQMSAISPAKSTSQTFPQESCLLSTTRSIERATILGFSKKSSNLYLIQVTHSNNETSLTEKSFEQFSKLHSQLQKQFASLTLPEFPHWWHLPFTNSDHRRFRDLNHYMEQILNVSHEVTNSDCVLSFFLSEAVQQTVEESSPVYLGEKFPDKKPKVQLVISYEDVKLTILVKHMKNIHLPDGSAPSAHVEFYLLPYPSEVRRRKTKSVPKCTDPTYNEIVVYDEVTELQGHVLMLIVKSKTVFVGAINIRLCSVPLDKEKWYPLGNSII

[6] = molecular target: Serine/threonine-protein kinase BRSK1 (Homo sapiens) (UniProt Q8TDC3); experiment: Binding affinity to wild-type human partial length BRSK1 (M1 to E754 residues) expressed in bacterial expression system assessed as residual binding level at 10 uM by Kinomescan method relative to control
[7] = molecular target: Tyrosine-protein kinase receptor Tie-1 (Homo sapiens) (UniProt P35590); experiment: Binding affinity to wild-type human partial length TIE1 (T819 to A1138 residues) expressed in bacterial expression system assessed as residual binding level at 10 uM by Kinomescan method relative to control
[8] = molecular target: Mitogen-activated protein kinase kinase kinase 4 (Homo sapiens) (UniProt Q9Y6R4); experiment: Binding affinity to wild-type human partial length MAP3K4 (G1319 to E1608 residues) expressed in bacterial expression system assessed as residual binding level at 10 uM by Kinomescan method relative to control
[9] = tested on: Phosphatidylinositol 4,5-bisphosphate 3-kinase catalytic subunit alpha isoform (Homo sapiens), P42336 [Q546K]; experiment: Binding affinity to human partial length PIK3CA Q546K mutant (R108 to N1068 residues) expressed in mammalian expression system assessed as residual binding level at 10 uM by Kinomescan method relative to control
[10] = tested on: eIF-2-alpha kinase GCN2 (Homo sapiens), Q9P2K8 [S808G]; experiment: Binding affinity to wild-type human partial length GCN2 kinase domain 2 (R585 to T1018 residues) S808G mutant expressed in bacterial expression system assessed as residual binding level at 10 uM by Kinomescan method relative to control
[11] = molecular target: Bone morphogenetic protein receptor type-2 (Homo sapiens) (UniProt Q13873); experiment: Binding affinity to wild-type human partial length BMPR2 (R179 to Q526 residues) expressed in mammalian expression system assessed as residual binding level at 10 uM by Kinomescan method relative to control
[12] = molecular target: Rhodopsin kinase GRK1 (Homo sapiens) (UniProt Q15835); experiment: Binding affinity to wild-type human full length GRK1 (M1 to S563 residues) expressed in mammalian expression system assessed as residual binding level at 10 uM by Kinomescan method relative to control
[13] = molecular target: Serine/threonine-protein kinase SIK3 (Homo sapiens) (UniProt Q9Y2K2); experiment: Binding affinity to wild-type human partial length QSK (A90 to L395 residues) expressed in mammalian expression system assessed as residual binding level at 10 uM by Kinomescan method relative to control
Sequence of Serine/threonine-protein kinase SIK3 (Homo sapiens) (Q9Y2K2 whole entry, looked up, the tested form may be a part): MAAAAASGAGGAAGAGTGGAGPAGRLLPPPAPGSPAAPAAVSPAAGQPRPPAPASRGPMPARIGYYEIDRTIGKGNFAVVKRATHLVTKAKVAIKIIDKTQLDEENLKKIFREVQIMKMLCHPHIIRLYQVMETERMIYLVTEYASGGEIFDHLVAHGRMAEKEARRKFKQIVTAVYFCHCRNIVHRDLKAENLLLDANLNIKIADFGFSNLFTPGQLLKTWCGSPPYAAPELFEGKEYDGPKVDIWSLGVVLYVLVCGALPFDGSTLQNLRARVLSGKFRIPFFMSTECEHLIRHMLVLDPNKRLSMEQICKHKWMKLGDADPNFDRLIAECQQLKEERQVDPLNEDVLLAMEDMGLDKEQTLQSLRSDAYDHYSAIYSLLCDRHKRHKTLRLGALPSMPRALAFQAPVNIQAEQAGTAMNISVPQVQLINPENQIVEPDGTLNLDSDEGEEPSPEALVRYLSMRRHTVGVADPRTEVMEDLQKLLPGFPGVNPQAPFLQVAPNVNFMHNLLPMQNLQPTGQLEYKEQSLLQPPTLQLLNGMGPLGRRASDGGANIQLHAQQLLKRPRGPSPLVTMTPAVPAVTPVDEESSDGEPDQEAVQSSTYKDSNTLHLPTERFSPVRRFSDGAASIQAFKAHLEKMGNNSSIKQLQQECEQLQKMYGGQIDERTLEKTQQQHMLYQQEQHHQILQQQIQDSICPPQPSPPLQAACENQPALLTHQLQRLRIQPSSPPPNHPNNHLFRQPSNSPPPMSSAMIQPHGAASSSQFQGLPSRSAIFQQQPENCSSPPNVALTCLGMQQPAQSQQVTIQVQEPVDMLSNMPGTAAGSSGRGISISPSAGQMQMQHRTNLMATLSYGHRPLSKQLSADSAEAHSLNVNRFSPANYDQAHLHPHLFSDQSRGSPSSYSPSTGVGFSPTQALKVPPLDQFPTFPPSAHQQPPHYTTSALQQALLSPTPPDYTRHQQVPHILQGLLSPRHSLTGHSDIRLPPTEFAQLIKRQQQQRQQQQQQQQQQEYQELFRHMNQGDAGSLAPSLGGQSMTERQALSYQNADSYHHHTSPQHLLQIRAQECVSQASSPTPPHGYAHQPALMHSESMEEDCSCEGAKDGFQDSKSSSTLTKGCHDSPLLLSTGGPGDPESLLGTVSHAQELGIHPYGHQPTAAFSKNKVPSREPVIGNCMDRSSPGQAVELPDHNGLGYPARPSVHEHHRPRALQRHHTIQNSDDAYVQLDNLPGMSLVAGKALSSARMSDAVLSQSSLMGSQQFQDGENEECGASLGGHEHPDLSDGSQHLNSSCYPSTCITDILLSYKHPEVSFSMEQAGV

[14] = molecular target: Serine/threonine-protein kinase MARK1 (Homo sapiens) (UniProt Q9P0L2); experiment: Binding affinity to wild-type human partial length MARK1 (Q30 to T341 residues) expressed in bacterial expression system assessed as residual binding level at 10 uM by Kinomescan method relative to control
[15] = molecular target: Serine/threonine-protein kinase Chk2 (Homo sapiens) (UniProt O96017); experiment: Binding affinity to wild-type human partial length CHEK2 (S253 to E574 residues) expressed in bacterial expression system assessed as residual binding level at 10 uM by Kinomescan method relative to control
Sequence of Serine/threonine-protein kinase Chk2 (Homo sapiens) (O96017 whole entry, the tested form may be a part): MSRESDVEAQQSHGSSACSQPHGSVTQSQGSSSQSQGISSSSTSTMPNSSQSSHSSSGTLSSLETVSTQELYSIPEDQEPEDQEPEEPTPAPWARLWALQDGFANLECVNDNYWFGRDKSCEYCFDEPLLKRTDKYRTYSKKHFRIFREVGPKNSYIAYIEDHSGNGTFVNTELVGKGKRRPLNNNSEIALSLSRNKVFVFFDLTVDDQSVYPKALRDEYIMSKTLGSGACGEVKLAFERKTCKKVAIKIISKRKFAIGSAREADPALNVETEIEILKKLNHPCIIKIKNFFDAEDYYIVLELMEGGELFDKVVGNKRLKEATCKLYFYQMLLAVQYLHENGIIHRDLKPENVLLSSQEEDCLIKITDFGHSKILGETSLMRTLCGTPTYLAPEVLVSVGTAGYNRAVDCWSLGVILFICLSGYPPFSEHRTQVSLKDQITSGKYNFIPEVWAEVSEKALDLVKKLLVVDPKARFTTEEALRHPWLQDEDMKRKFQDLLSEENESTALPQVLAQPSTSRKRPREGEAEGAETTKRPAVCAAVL

[16] = tested on: Epidermal growth factor receptor (Homo sapiens), P00533 [UNDEFINED MUTATION]; experiment: Binding affinity to human partial length EGFR E746-A750del mutant expressed in bacterial expression system assessed as residual binding level at 10 uM by Kinomescan method relative to control
[17] = molecular target: Ankyrin repeat and protein kinase domain-containing protein 1 (Homo sapiens) (UniProt Q8NFD2); experiment: Binding affinity to wild-type human partial length ANKK1 (M1 to A305 residues) expressed in mammalian expression system assessed as residual binding level at 10 uM by Kinomescan method relative to control
Caco-2 = experiment: Cytotoxicity against human Caco2 cells assessed as growth inhibition incubated for 48 hrs by Hoechst 33342 staining based assay; format: cell-based; settings: Caco-2, 48 h
[18] = molecular target: Dual specificity protein kinase CLK4 (Homo sapiens) (UniProt Q9HAZ1); experiment: Binding affinity to wild-type human partial length CLK4 (R135 to K481 residues) expressed in bacterial expression system assessed as residual binding level at 10 uM by Kinomescan method relative to control
Sequence of Dual specificity protein kinase CLK4 (Homo sapiens) (Q9HAZ1 whole entry, looked up, the tested form may be a part): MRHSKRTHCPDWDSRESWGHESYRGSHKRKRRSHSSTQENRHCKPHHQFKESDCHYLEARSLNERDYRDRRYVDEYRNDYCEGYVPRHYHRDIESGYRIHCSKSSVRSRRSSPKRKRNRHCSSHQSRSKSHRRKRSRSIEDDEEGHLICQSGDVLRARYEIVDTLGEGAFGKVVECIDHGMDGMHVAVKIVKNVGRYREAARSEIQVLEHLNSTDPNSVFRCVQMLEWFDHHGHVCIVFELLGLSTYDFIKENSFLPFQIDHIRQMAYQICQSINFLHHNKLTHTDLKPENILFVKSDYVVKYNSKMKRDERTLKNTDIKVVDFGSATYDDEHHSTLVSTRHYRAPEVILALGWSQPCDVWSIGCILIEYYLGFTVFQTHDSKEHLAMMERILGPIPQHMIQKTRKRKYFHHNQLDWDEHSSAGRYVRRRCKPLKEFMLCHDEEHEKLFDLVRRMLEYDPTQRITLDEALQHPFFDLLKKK

[19] = molecular target: Serine/threonine-protein kinase PLK2 (Homo sapiens) (UniProt Q9NYY3); experiment: Binding affinity to wild-type human partial length PLK2 (H58 to F354 residues) expressed in mammalian expression system assessed as residual binding level at 10 uM by Kinomescan method relative to control
[20] = molecular target: Myotonin-protein kinase (Homo sapiens) (UniProt Q09013); experiment: Binding affinity to wild-type human partial length DMPK (V47 to V415 residues) expressed in bacterial expression system assessed as residual binding level at 10 uM by Kinomescan method relative to control
[21] = molecular target: SNF-related serine/threonine-protein kinase (Homo sapiens) (UniProt Q9NRH2); experiment: Binding affinity to wild-type human partial length SNRK (M1 to E339 residues) expressed in mammalian expression system assessed as residual binding level at 10 uM by Kinomescan method relative to control
[22] = molecular target: Transient receptor potential cation channel subfamily M member 6 (Homo sapiens) (UniProt Q9BX84); experiment: Binding affinity to wild-type human partial length TRPM6 (Q1723 to I1998 residues) expressed in mammalian expression system assessed as residual binding level at 10 uM by Kinomescan method relative to control
[23] = molecular target: Tyrosine-protein kinase Fes/Fps (Homo sapiens) (UniProt P07332); experiment: Binding affinity to wild-type human partial length FES (I527 to R822 residues) expressed in bacterial expression system assessed as residual binding level at 10 uM by Kinomescan method relative to control

O=C(Nc1cc(-c2cn(CCNc3c4c(nc5ccccc35)CCCC4)nn2)ccn1)Nc1cccc2c1C1CCCCN1C2=O (racemic)
Activity [1]: 97%
Activity [2]: 66%
Activity [3]: 100%
Activity [4]: 31%
Activity [5]: 44%
Activity [6]: 66%
Activity [7]: 66%
Activity [8]: 79%
Activity [9]: 84%
Activity [10]: 75%
Activity [11]: 55%
Activity [12]: 40%
Activity [13]: 23%
Activity [14]: 50%
Activity [15]: 90%
Activity [16]: 79%
Activity [17]: 93%
IC50 (Caco-2): 3000 nM
Activity [18]: 2.8%
Activity [19]: 80%
Activity [20]: 18%
Activity [21]: 100%
Activity [22]: 100%
Activity [23]: 92%
